Patent US10450549B2, “Aryloxyphenoxypropionate tolerance in turfrgass species and use of AAD1 as a selectable marker” (Dow AgroSciences, LLC, priority 2004, dated 2019)
Several values for one entry are separate records, joined by “and”; a condition that tells them apart may be missing. Equal values may be shown once.

Assays:
[1] = target: T1, AAD1 (v1) (Sphingobium herbicidovorans, UniProt Q8KSC8); assay: Colorimetric phenol detection assay of AAD1 (v1) activity (purified enzyme or E. coli extract); format: biochemical; settings: for A510, AAD1 / A510, AAD1 (10x): substrate 1 mM; for A510, AAD1: 1 μg purified AAD1 (v1) per 0.16 ml assay; for A510, AAD1 (10x): 10 μg purified AAD1 (v1) per 0.16 ml assay
T1 construct: made in house; host or cells: E. coli BL-21 Star (DE3), plasmid pDAB3203
T1 sequence (Q8KSC8 whole entry): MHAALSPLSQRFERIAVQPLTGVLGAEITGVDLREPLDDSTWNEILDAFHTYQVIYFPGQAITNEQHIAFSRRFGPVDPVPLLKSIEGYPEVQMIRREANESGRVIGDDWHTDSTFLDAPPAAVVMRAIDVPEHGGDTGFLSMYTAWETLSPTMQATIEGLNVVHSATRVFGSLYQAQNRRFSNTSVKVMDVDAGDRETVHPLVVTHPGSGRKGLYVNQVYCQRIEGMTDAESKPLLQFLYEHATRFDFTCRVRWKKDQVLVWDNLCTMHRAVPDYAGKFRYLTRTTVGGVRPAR

[2] = system: transformed-control line containing PAT and Cry1F; assay: Foliar-applied auxinic herbicides on control (PAT/Cry1F, wildtype) Arabidopsis, % injury 14 DAT; format: in vivo, Arabidopsis thaliana; settings: PatCry1f - Control
Experimental: (§1) The ability of AAD1 (v3) to provide resistance to other aryloxyphenoxyalkanoate auxin herbicides in transgenic Arabidopsis was determined by foliar application of various substrates described in Example 6.8. T4 generation Arabidopsis seed, homozygous for AAD1 (v3) (line AAD1.01.315.076) was stratified, and sown into selection trays much like that of Arabidopsis (Example 6.4). A transformed-control line containing PAT and the insect resistance gene Cry1F was planted in a similar manner. Seedlings were transferred to individual 3-inch pots in the greenhouse. All plants were sprayed with the use of a track sprayer set at 187 L/ha. […] All applications were formulated in 200 mM Hepes buffer (pH 7.5). Each treatment was replicated 3-4 times. Plants were evaluated at 3 and 14 days after treatment and are averaged over two experiments.

[3] = system: T4 Arabidopsis homozygous for AAD1 (v3) (line AAD1.01.315.076); assay: Foliar-applied auxinic herbicides on homozygous T4 AAD1 (v3) Arabidopsis, % injury 14 DAT; format: in vivo, Arabidopsis thaliana; settings: AAD1.01.315.076.T4 homozygous AAD1 plants
Experimental: as §1

## CC(Oc1ccc(Oc2ncc(Cl)cc2F)cc1)C(=O)O (racemic) [(R,S)- clodinofop]
[1]; Table 4
  A510, AAD1: 0.295
  A510, AAD1 (10x): 1.98

## CC(Oc1ccc(Oc2ccc(C(F)(F)F)cn2)cc1)C(=O)O (racemic) [(R,S)- fluazifop]
[1]; Table 4
  A510, AAD1: 0.427
  A510, AAD1 (10x): 2.17

## Oc1ccc(Cl)cc1Cl [2,4-DCP]
[2]; 50 g ae/ha foliar
  Ave % Injury 14DAT: 0%
[2]; 200 g ae/ha foliar
  Ave % Injury 14DAT: 0%
[2]; 800 g ae/ha foliar
  Ave % Injury 14DAT: 0%
[2]; 3200 g ae/ha foliar
  Ave % Injury 14DAT: 0%
[3]; 50 g ae/ha foliar
  Ave % Injury 14DAT: 0%
[3]; 200 g ae/ha foliar
  Ave % Injury 14DAT: 0%
[3]; 800 g ae/ha foliar
  Ave % Injury 14DAT: 0%
[3]; 3200 g ae/ha foliar
  Ave % Injury 14DAT: 0%

## CC(Oc1ccc(Cl)c(N)c1Cl)C(=O)O (racemic) [(R,S)-3-aminodichlorpop]
[1]; Table 3, 15 min
  A510, AAD1: 0.228
  A510, AAD1 (10x): 2.676
[1]; purified AAD1 (v1), Table 3 data, listed as 3-aminodichlorprop
  fold better than 2,4-D as a substrate: ~7 fold and > 7 fold

## CC(Oc1ccc(Oc2ncc(C(F)(F)F)cc2Cl)cc1F)C(=O)O (centres unmarked) [compound 25646]
[1]; Table 4
  A510, AAD1: 0.144
  A510, AAD1 (10x): 1.69
